From article PMC6328172, “5-HT2 receptor binding, functional activity and selectivity in N-benzyltryptamines” (PLoS ONE, 2019)
Where two headings read alike, the source gives them in different places.

Legend:
[1] = target: T1, human 5-HT2C receptor (Homo sapiens, UniProt P28335); assay: Competition binding to the human 5-HT2C receptor ([3H]mesulergine, HeLa-5-HT2C membranes); settings: for Selectivity 5-HT2C/2A (binding, in parentheses): from Ki values, Table 1; for Ki: human receptor, [3H]mesulergine displacement, no unit in the table, nM, read-out: 5-HT2C Ki (in parentheses) (converted)
T1 construct: expressed in transfected cells; host or cells: HeLa (HeLa-5-HT2C cell line)
T1 sequence (P28335 33-458): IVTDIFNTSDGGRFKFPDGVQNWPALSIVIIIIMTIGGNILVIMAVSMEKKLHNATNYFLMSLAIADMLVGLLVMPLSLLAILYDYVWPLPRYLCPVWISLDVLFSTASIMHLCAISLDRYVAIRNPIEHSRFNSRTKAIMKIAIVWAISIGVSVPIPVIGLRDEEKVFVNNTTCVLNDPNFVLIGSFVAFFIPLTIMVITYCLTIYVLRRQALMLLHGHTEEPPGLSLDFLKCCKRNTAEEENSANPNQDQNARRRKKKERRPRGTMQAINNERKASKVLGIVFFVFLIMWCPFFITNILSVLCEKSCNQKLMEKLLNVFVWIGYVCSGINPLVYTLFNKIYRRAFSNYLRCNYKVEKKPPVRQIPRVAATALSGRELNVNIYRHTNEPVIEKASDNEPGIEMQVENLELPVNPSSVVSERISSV

[2] = target: T2, human 5-HT2A receptor (Homo sapiens, UniProt P28223); assay: Ca2+ mobilization in CHO h5-HT2A cells; type: cell-based; settings: for Selectivity 5-HT2A/2C (functional): from EC50 values, Table 2; for Emax: relative efficacy, % of response to 5-HT
T2 construct: expressed in transfected cells; host or cells: CHO (CHO-5-HT2A cell line)

[3] = target: T1, human 5-HT2C receptor; assay: Ca2+ mobilization in HeLa h5-HT2C cells; type: cell-based; settings: for EC50: no unit in the table, nM; for Emax: HeLa, read-out: 5-HT2C % Emax; for Selectivity 5-HT2C/2A (functional, in parentheses): from EC50 values, Table 2
[4] = target: T2, human 5-HT2A receptor; assay: Competition binding to the human 5-HT2A receptor ([3H]ketanserin, CHO-5-HT2A membranes); settings: for Selectivity 5-HT2A/2C (binding): from Ki values, Table 1; for Ki: human receptor, [3H]ketanserin displacement
[5] = target: human 5-HT2B receptor (Homo sapiens, UniProt P41595); assay: Competition binding to the human 5-HT2B receptor ([3H]LSD, CHO-5-HT2B membranes)
[6] = Ca2+ mobilization, no unit in the table, nM, read-out: 5-HT2A EC50 (in parentheses) (converted)
[7] = Ca2+ mobilization, read-out: 5-HT2C EC50 (in parentheses) (converted)
[8] = no unit in the table, nM, read-out: 5-HT2A Ki (in parentheses) (converted)

T2 sequence (P28223 whole entry): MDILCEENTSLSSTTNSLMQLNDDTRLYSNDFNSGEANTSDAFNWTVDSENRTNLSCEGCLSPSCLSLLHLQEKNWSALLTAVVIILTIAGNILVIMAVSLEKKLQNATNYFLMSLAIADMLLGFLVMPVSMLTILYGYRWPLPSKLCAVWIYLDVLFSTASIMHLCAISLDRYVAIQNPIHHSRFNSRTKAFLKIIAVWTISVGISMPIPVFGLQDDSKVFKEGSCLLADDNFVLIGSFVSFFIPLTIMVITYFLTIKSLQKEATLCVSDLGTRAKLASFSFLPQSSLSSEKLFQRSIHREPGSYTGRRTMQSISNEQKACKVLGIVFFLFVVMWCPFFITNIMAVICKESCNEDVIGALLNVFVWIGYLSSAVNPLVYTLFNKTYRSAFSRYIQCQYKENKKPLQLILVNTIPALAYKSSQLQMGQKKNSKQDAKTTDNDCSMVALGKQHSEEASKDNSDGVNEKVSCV
human 5-HT2B receptor, sequence (P41595 whole entry): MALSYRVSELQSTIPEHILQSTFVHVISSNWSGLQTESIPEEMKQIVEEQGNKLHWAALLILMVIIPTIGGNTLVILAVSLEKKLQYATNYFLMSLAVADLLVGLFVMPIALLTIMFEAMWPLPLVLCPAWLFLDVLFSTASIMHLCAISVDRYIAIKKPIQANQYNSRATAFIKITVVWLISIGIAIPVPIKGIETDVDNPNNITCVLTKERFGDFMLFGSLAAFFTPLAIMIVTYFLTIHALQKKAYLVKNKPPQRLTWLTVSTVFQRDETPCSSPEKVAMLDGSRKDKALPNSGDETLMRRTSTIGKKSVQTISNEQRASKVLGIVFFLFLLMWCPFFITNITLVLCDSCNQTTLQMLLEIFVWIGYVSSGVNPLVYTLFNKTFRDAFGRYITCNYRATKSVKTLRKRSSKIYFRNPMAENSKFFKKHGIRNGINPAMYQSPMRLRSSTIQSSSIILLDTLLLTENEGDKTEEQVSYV

Compound	Selectivity 5-HT2C/2A (binding, in parentheses) [1]	Ki [1]	EC50 [2, 6]	Selectivity 5-HT2A/2C (functional) [2]	Emax [2]	EC50 [3, 7]	Emax [3]	Selectivity 5-HT2C/2A (functional, in parentheses) [3]	Selectivity 5-HT2A/2C (binding) [4]	Ki [4, 8]	Ki [5]	functional activity at h5-HT2A receptor (in words) ([2]; Ca2+ mobilization)	5-HT2A pEC50 ([2]; Ca2+ mobilization, pEC50 ± SEM)	EC50 ([2]; Ca2+ mobilization, pEC50 ± SEM, read-out: 5-HT2A pEC50 (converted))	EC50 ([3]; 5-HT2C EC50 (in parentheses), Ca2+ mobilization)	times less potent than lorcaserin ([3]; 5-HT2C functional potency)	functional activity at h5-HT2C receptor (in words) ([3]; Ca2+ mobilization)	Ki ([4]; read-out: 5-HT2A pKi ± S.E.M. (converted))
Cc1cccc(CNCCc2c[nH]c3ccccc23)c1 [Compound 8, N-(3-Methylbenzyl)-[2-(1H-indol-3-yl)ethyl]amine]	0.20	74.1 nM	61.7 nM	0.48	33 ± 2.11%	29.5 nM	82.6 ± 2.11%	2.09	5.10	14.4 nM	17 nM							
Fc1cccc(CNCCc2c[nH]c3ccccc23)c1 [Compound 9, N-(3-Fluorobenzyl)-[2-(1H-indol-3-yl)ethyl]amine]	1.19	214 nM	389 nM	0.29	33.8 ± 4.01%	112 nM	112 ± 4.84%	3.47	0.84	257 nM	126 nM							
Clc1cccc(CNCCc2c[nH]c3ccccc23)c1 [Compound 10, N-(3-Chlorobenzyl)-[2-(1H-indol-3-yl)ethyl]amine]	0.46	97.7 nM	120 nM	2.34	57.9 ± 4.15%	282 nM	117 ± 4.82%	0.43	2.17	44.7 nM	34.7 nM							
Brc1cccc(CNCCc2c[nH]c3ccccc23)c1 [Compound 11, N-(3-Bromobenzyl)-[2-(1H-indol-3-yl)ethyl]amine]		75.9 nM	58.9 nM	0.93	32.6 ± 1.64%	55 nM	107 ± 2.78%	1.07		8.13 nM	21.9 nM							
CCOc1ccc(CNCCc2c[nH]c3ccccc23)cc1 [Compound 15, N-(4-Ethoxybenzyl)-[2-(1H-indol-3-yl)ethyl]amine]	0.36	741 nM	363 nM	0.032	36.7 ± 6.13%	11.7 nM	93.2 ± 3.26%	30.9	2.66	275 nM	269 nM							
Clc1ccc(CNCCc2c[nH]c3ccccc23)cc1 [Compound 16, N-(4-Chlorobenzyl)-[2-(1H-indol-3-yl)ethyl]amine]	0.73	955 nM	58.9 nM	0.85	80 ± 4.54%	50.1 nM	98.3 ± 4.18%	1.17	1.37	708 nM	224 nM							
Brc1ccc(CNCCc2c[nH]c3ccccc23)cc1 [Compound 17, N-(4-Bromobenzyl)-[2-(1H-indol-3-yl)ethyl]amine]	0.92	1070 nM				6760 nM	110 ± 4.3%		1.09	1000 nM	263 nM	too low for quantification						
COc1cccc(CNCCc2c[nH]c3ccccc23)c1O [Compound 19, N-(2-Hydroxy-3-methoxybenzyl)-[2-(1H-indol-3-yl)ethyl]amine]	1.72	16.6 nM	49 nM	1.91	26.2 ± 2.34%	93.3 nM	107 ± 6.91%	0.52	0.58	26.3 nM	13.2 nM							
Oc1c(Br)cccc1CNCCc1c[nH]c2ccccc12 [Compound 21, N-(3-Bromo-2-hydroxybenzyl)-[2-(1H-indol-3-yl)ethyl]amine]	0.10	138 nM	15800 nM	0.0017	40.4 ± 6.23%	27.5 nM	98.8 ± 2.83%	575	9.8	14.1 nM	15.5 nM	extremely weak h5-HT2A partial agonist	4.80	15800 nM	27 nM	about 3 times	full agonist	
Oc1c(F)cccc1CNCCc1c[nH]c2ccccc12 [Compound 22, N-(3-Fluoro-2-hydroxybenzyl)-[2-(1H-indol-3-yl)ethyl]amine]	1.22	178 nM	162 nM	0.105	53.6 ± 4.49%	17 nM	104 ± 4.96%	9.55	0.82	209 nM	129 nM							
Cc1ccc(O)c(CNCCc2c[nH]c3ccccc23)c1 [Compound 23, N-(2-Hydroxy-5-methylbenzyl)-[2-(1H-indol-3-yl)ethyl]amine]	2.77	269 nM	110 nM	0.91	43.6 ± 0.9%	100 nM	89.4 ± 3.86%	1.10	0.36	741 nM	155 nM							
Oc1ccc(F)cc1CNCCc1c[nH]c2ccccc12 [Compound 24, N-(5-Fluoro-2-hydroxybenzyl)-[2-(1H-indol-3-yl)ethyl]amine]	7.15	105 nM	75.9 nM	0.35	71.6 ± 1.95%	26.3 nM	105 ± 2.19%	2.88	0.14	759 nM	77.6 nM							794 nM
